Legend:
[1] = system: PDGF-β-induced NHDF proliferation; assay: PDGF-β-induced NHDF proliferation assay; type: cell-based, human; settings: PDGF-β 10 ng/ml; FIGS. 8-12
Experimental: (§1) The activities of the compounds of the present invention were tested using a proliferation assay, such as the one described by N. Ali et al., J Pharmacol Sci, 2005, 98, 130-141. A defined number of cells is seeded in each well of a culture plate. In order to stimulate cell proliferation, a growth factor is added in some wells, while others remain unstimulated (basal proliferation conditions). To monitor the effects of substances of interest (oligosaccharides compounds according to the present invention) on basal and growth factor-induced cell proliferation, substances of interest are added at different concentrations (i.e. 0.1, 0.3, 1, 3, 10 or 30 μM) in presence or absence of the growth factor, respectively. After an incubation period of 24 hours, the total number of cells is estimated in all samples (generally through an indirect method, such as incorporation of radioactivity into the newly synthesised DNA or colorimetric assays based on cellular enzyme activities or metabolite production). The total number of cells for the control sample in which no substance of interest nor growth factor have been added is set to 1. The total number of cells in all the other samples is compared to this value in order to obtain the relative proliferation index.
Typically, cells are seeded in 48 or 96-well plates. After 2 h (i.e. the time required for cells to adhere to the support) the normal culture media is replaced by a minimal essential culture media in which cells are grown for 24 h (starvation period). This step is used to reduce cell growth (cell metabolism is slowed down in order to better visualise the growth factor stimulation effect) before adding an angiogenic protein, such as a growth factor i.e. FGF-2 or PDGF-β. No growth factor is added in basal proliferation conditions (independently of the presence or absence of the oligosaccharide of the present invention). To evaluate the inhibition of the oligosaccharide compounds according to the present invention on cell proliferation, the angiogenic protein (growth factor) is added at a fixed concentration (from 5 ng/ml to 10 ng/ml) with increasing amounts of oligosaccharide compounds (0.1, 0.3, 1, 3, 10 or 30 μM), which allows the IC50 value to be estimated (i.e. the oligosaccharide concentration at which the stimulatory effect of the growth factor is inhibited by 50%).
(§2) Following addition of the angiogenic protein (growth factor) over a 24 h stimulation period, a commercial reagent containing a substrate for a cellular enzyme is added and incubated for couple of hours. The degradation of the substrate by the enzyme leads to the production of a coloured product which is titrated by absorbance measurement. […]

[2] = system: FGF-2-induced NHDF (Normal Human Dermal Fibroblast) cell proliferation; assay: FGF-2-induced NHDF proliferation assay; type: cell-based; settings: compound 0.1 to 30 μM
Experimental: as §1
Typically, cells are seeded in 48 or 96-well plates. After 2 h (i.e. the time required for cells to adhere to the support) the normal culture media is replaced by a minimal essential culture media in which cells are grown for 24 h (starvation period). This step is used to reduce cell growth (cell metabolism is slowed down in order to better visualise the growth factor stimulation effect) before adding an angiogenic protein, such as a growth factor i.e. FGF-2 or PDGF-β. No growth factor is added in basal proliferation conditions (independently of the presence or absence of the oligosaccharide of the present invention). […]
as §2
In the following experiments the effects of compounds 240 and 241 (concentrations from 0.1 to 30 μM) were evaluated on FGF-2-induced NHDF (Normal Human Dermal Fibroblast) cell proliferation. […]

Structure (SMILES)	inhibition of PDGF-β-induced NHDF proliferation [1]	inhibition of FGF-2-induced fibroblast proliferation ([2]; FGF-2 5 ng/ml, FIGS. 6-7)	basal NHDF proliferation ([2]; control conditions, no growth factor)
C#CCCCOC1OC(COS(=O)(=O)[O-])C(OC2OC(C(=O)[O-])C(OC3OC(COS(=O)(=O)[O-])C(OC4OC(C(=O)[O-])C(OCc5ccccc5)C(OCc5ccccc5)C4OS(=O)(=O)[O-])C(OCc4ccccc4)C3NS(=O)(=O)[O-])C(OCc3ccccc3)C2OS(=O)(=O)[O-])C(OCc2ccccc2)C1NS(=O)(=O)[O-].[Na+].[Na+].[Na+].[Na+].[Na+].[Na+].[Na+].[Na+] (stereo not shown) [Compound 237]	inhibit PDGF-β proliferation (starting in the micromolar range)	–	–
C#CCCCOC1OC(COS(=O)(=O)[O-])C(OC2OC(C(=O)[O-])C(OC3OC(COS(=O)(=O)[O-])C(OC4OC(C(=O)[O-])C(OC5OC(COS(=O)(=O)[O-])C(OC6OC(C(=O)[O-])C(OC7OC(COS(=O)(=O)[O-])C(OC8OC(C(=O)[O-])C(OC9OC(COS(=O)(=O)[O-])C(OC%10OC(C(=O)[O-])C(OCc%11ccccc%11)C(OCc%11ccccc%11)C%10OS(=O)(=O)[O-])C(OCc%10ccccc%10)C9NS(=O)(=O)[O-])C(OCc9ccccc9)C8OS(=O)(=O)[O-])C(OCc8ccccc8)C7NS(=O)(=O)[O-])C(OCc7ccccc7)C6OS(=O)(=O)[O-])C(OCc6ccccc6)C5NS(=O)(=O)[O-])C(OCc5ccccc5)C4OS(=O)(=O)[O-])C(OCc4ccccc4)C3NS(=O)(=O)[O-])C(OCc3ccccc3)C2OS(=O)(=O)[O-])C(OCc2ccccc2)C1NS(=O)(=O)[O-].[Na+].[Na+].[Na+].[Na+].[Na+].[Na+].[Na+].[Na+].[Na+].[Na+].[Na+].[Na+].[Na+].[Na+].[Na+].[Na+].[Na+].[Na+].[Na+].[Na+] (stereo not shown) [Compound 241]	inhibit PDGF-β proliferation (starting in the micromolar range)	inhibit FGF-2-induced fibroblast proliferation (starting in the micromolar range)	did not seem to be affected

From patent publication US20110166078A1, “OLIGOSACCHARIDE COMPOUNDS FOR USE IN MOBILISING STEM CELLS” (ENDOTIS PHARMA, priority 2008, published 2011)
